Measurements published in PMC9856672, “SGC-CAMKK2-1: A Chemical Probe for CAMKK2” (Cells, 2023).

Legend:
[1] = target: T1, p38-delta (Homo sapiens, UniProt O15264); assay: KINOMEscan 1 μM, p38-delta; format: binding; settings: 1000 nM; Entrez MAPK13; read-out: Percent Control
T1 construct: purchased Eurofins DiscoverX KINOMEscan
Text: (§1) Supplement cells-12-00287-s001.zip/File S2. KinomeScan data for the CAMKK2 probe and negative control.xlsx, sheet "SGC-CAMKK2-1" | column: Percent Control

[2] = target: T2, INSR (Homo sapiens, UniProt P06213); assay: KINOMEscan 1 μM, INSR; format: binding; settings: 1000 nM; Entrez INSR; read-out: Percent Control
T2 construct: purchased Eurofins DiscoverX KINOMEscan
T2 sequence (P06213 28-1382): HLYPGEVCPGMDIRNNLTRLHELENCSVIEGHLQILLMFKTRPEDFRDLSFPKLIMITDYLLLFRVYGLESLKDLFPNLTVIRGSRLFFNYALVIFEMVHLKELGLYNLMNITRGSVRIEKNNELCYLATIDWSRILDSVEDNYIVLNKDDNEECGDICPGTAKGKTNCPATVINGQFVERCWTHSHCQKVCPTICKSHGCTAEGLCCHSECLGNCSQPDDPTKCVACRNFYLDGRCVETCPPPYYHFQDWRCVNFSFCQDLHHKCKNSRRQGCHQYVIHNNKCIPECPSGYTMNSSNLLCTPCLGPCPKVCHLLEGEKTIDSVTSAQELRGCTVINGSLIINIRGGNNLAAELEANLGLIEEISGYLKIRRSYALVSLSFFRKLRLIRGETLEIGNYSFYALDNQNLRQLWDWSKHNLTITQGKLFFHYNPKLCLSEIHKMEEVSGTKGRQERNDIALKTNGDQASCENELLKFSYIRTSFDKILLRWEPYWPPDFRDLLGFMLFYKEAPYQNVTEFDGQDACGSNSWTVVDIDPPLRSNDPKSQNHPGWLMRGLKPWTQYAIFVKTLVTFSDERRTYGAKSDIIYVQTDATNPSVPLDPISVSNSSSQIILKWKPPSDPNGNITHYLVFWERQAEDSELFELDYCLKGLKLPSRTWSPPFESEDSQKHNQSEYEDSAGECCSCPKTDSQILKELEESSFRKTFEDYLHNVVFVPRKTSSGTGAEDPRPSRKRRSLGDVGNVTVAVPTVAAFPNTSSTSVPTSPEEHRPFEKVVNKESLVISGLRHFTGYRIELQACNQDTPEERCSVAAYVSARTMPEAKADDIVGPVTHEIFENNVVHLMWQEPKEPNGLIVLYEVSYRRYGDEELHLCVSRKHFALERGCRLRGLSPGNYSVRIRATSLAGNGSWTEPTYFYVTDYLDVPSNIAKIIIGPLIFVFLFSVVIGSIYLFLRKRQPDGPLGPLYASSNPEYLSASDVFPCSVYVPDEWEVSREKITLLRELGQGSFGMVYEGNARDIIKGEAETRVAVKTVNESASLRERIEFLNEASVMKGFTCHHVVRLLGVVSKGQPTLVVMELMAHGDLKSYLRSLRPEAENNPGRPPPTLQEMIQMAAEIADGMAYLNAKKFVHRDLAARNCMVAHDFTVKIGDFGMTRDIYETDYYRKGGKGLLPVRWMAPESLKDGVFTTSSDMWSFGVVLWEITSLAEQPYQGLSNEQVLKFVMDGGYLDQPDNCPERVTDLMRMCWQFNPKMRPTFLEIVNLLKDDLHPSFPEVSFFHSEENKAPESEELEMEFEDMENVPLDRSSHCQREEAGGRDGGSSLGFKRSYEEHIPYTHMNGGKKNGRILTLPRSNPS
Text: as §1

[3] = target: T3, LIMK2 (Homo sapiens, UniProt P53671); assay: KINOMEscan 1 μM, LIMK2; format: binding; settings: 1000 nM; Entrez LIMK2; read-out: Percent Control
T3 construct: purchased Eurofins DiscoverX KINOMEscan
Text: as §1

[4] = target: T4, HIPK1 (Homo sapiens, UniProt Q86Z02); assay: KINOMEscan 1 μM, HIPK1; format: binding; settings: 1000 nM; Entrez HIPK1; read-out: Percent Control
T4 construct: purchased Eurofins DiscoverX KINOMEscan
Text: as §1

[5] = target: T5, ASK2 (Homo sapiens, UniProt O95382); assay: KINOMEscan 1 μM, ASK2; format: binding; settings: 1000 nM; Entrez MAP3K6; read-out: Percent Control
T5 construct: purchased Eurofins DiscoverX KINOMEscan
T5 sequence (O95382 whole entry): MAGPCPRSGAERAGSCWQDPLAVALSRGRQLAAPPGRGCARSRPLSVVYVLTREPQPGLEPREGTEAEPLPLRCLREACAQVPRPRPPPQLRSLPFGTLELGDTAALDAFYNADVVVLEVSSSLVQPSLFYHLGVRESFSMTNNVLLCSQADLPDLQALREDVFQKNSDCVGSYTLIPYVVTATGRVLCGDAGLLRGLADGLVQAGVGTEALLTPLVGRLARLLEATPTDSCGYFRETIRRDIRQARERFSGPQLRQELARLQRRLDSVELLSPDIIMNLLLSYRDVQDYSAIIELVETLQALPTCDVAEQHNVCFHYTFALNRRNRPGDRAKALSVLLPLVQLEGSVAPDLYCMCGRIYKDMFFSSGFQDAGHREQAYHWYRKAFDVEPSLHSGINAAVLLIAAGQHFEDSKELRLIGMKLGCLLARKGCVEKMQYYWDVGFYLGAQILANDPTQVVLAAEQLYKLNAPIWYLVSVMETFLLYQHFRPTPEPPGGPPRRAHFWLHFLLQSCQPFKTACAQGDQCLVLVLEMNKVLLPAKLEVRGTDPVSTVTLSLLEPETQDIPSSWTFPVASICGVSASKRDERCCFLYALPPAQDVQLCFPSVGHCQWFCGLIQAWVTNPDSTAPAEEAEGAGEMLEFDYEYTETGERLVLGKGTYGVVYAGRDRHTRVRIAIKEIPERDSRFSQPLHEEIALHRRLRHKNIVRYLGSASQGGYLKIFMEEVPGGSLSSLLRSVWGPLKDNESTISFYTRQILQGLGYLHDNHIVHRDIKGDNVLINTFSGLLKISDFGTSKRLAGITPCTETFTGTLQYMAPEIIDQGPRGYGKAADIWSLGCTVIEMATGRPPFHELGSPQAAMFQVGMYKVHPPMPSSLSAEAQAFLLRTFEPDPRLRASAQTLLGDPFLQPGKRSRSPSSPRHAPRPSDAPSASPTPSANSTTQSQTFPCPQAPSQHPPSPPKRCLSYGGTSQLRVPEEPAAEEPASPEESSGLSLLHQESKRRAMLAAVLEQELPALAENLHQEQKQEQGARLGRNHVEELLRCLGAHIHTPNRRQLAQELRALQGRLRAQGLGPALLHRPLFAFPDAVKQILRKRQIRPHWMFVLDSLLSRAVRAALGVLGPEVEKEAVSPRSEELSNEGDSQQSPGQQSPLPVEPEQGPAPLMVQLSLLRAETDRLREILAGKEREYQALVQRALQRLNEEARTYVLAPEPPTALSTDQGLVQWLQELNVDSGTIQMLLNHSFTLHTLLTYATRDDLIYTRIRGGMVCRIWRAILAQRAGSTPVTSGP
Text: as §1

[6] = target: T6, ABL1-phosphorylated (Homo sapiens, UniProt P00519); assay: KINOMEscan 1 μM, ABL1-phosphorylated; format: binding; settings: 1000 nM; Entrez ABL1; read-out: Percent Control
T6 construct: purchased Eurofins DiscoverX KINOMEscan
Text: as §1

[7] = target: T7, ADCK3 (Homo sapiens, UniProt Q8NI60); assay: KINOMEscan 1 μM, ADCK3; format: binding; settings: 1000 nM; Entrez CABC1; read-out: Percent Control
T7 construct: purchased Eurofins DiscoverX KINOMEscan
Text: as §1

[8] = target: T8, AXL (Homo sapiens, UniProt P30530); assay: KINOMEscan 1 μM, AXL; format: binding; settings: 1000 nM; Entrez AXL; read-out: Percent Control
T8 construct: purchased Eurofins DiscoverX KINOMEscan
Text: as §1

[9] = target: T9, BRAF(V600E) (Homo sapiens, UniProt P15056, V600E); assay: KINOMEscan 1 μM, BRAF(V600E); format: binding; settings: 1000 nM; Entrez BRAF; read-out: Percent Control
T9 construct: purchased Eurofins DiscoverX KINOMEscan
Text: as §1

[10] = target: T10, EPHA1 (Homo sapiens, UniProt P21709); assay: KINOMEscan 1 μM, EPHA1; format: binding; settings: 1000 nM; Entrez EPHA1; read-out: Percent Control
T10 construct: purchased Eurofins DiscoverX KINOMEscan
T10 sequence (P21709 26-976): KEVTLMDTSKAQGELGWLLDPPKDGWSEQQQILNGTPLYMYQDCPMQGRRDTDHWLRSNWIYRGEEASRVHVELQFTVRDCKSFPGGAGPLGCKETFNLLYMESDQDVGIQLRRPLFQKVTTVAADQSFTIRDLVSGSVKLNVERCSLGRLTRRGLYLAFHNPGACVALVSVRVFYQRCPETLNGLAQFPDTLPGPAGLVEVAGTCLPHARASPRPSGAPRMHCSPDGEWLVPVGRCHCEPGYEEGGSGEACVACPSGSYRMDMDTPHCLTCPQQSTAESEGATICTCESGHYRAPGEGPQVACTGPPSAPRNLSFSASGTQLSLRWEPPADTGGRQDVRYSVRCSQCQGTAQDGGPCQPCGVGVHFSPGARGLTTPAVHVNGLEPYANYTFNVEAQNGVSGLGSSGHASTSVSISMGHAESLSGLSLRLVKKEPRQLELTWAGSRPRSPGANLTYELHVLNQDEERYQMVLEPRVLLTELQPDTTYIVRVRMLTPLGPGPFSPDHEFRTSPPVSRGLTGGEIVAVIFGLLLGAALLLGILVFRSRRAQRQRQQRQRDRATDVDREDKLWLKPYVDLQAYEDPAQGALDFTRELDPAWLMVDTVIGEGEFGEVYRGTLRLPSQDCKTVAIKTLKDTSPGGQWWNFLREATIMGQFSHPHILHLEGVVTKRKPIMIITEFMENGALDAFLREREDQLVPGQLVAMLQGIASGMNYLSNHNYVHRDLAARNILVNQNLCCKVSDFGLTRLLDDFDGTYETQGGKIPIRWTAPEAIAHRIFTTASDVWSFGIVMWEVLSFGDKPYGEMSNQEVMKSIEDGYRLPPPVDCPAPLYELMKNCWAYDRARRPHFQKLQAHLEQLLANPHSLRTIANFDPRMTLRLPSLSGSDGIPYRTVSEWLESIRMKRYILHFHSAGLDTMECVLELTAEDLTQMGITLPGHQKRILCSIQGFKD
Text: as §1

[11] = target: T11, FLT3-autoinhibited (Homo sapiens, UniProt P36888); assay: KINOMEscan 1 μM, FLT3-autoinhibited; format: binding; settings: 1000 nM; Entrez FLT3; read-out: Percent Control
T11 construct: purchased Eurofins DiscoverX KINOMEscan
Text: as §1

[12] = target: T12, MAPKAPK2 (Homo sapiens, UniProt P49137); assay: KINOMEscan 1 μM, MAPKAPK2; format: binding; settings: 1000 nM; Entrez MAPKAPK2; read-out: Percent Control
T12 construct: purchased Eurofins DiscoverX KINOMEscan
Text: as §1

[13] = target: T13, NDR2 (Homo sapiens, UniProt Q9Y2H1); assay: KINOMEscan 1 μM, NDR2; format: binding; settings: 1000 nM; Entrez STK38L; read-out: Percent Control
T13 construct: purchased Eurofins DiscoverX KINOMEscan
Text: as §1

[14] = target: T14, p38-alpha (Homo sapiens, UniProt Q16539); assay: KINOMEscan 1 μM, p38-alpha; format: binding; settings: 1000 nM; Entrez MAPK14; read-out: Percent Control
T14 construct: purchased Eurofins DiscoverX KINOMEscan
Text: as §1

[15] = target: T15, PCTK1 (Homo sapiens, UniProt Q00536); assay: DiscoverX KINOMEscan binding assay at 1 μM, PCTK1; settings: PCTK1 (CDK16); Compound Concentration 1000 nM; read-out: Percent Control
T15 construct: purchased Eurofins DiscoverX KINOMEscan
Text: as §1

[16] = target: T16, PLK3 (Homo sapiens, UniProt Q9H4B4); assay: DiscoverX KINOMEscan binding assay at 1 μM, PLK3; settings: Compound Concentration 1000 nM, read-out: Percent Control
T16 construct: purchased Eurofins DiscoverX KINOMEscan
Text: as §1

[17] = target: T17, PYK2 (Homo sapiens, UniProt Q14289); assay: DiscoverX KINOMEscan binding assay at 1 μM, PYK2; settings: PYK2 (PTK2B); Compound Concentration 1000 nM; read-out: Percent Control
T17 construct: purchased Eurofins DiscoverX KINOMEscan
Text: as §1

[18] = target: T18, RET(M918T) (Homo sapiens, UniProt P07949, M918T); assay: DiscoverX KINOMEscan binding assay at 1 μM, RET(M918T); settings: Compound Concentration 1000 nM, read-out: Percent Control
T18 construct: purchased Eurofins DiscoverX KINOMEscan
Text: as §1

[19] = target: T19, SRPK3 (Homo sapiens, UniProt Q9UPE1); assay: DiscoverX KINOMEscan binding assay at 1 μM, SRPK3; settings: Compound Concentration 1000 nM, read-out: Percent Control
T19 construct: purchased Eurofins DiscoverX KINOMEscan
Text: as §1

[20] = target: T20, KIT(L576P) (Homo sapiens, UniProt P10721, L576P); assay: KINOMEscan at 1 μM, KIT(L576P); format: binding; settings: 1000 nM, read-out: Percent Control
T20 construct: purchased Eurofins DiscoverX KINOMEscan
Text: (§2) Supplement cells-12-00287-s001.zip/File S2. KinomeScan data for the CAMKK2 probe and negative control.xlsx, sheet "SGC-CAMKK2-1N" | column: Percent Control

[21] = target: T21, ULK1 (Homo sapiens, UniProt O75385); assay: KINOMEscan at 1 μM, ULK1; format: binding; settings: 1000 nM, read-out: Percent Control
T21 construct: purchased Eurofins DiscoverX KINOMEscan
Text: as §2

[22] = target: T22, ABL1(M351T)-phosphorylated (Homo sapiens, UniProt P00519, M351T); assay: KINOMEscan at 1 μM, ABL1(M351T)-phosphorylated; format: binding; settings: 1000 nM, read-out: Percent Control
T22 construct: purchased Eurofins DiscoverX KINOMEscan
Text: as §2

[23] = target: T23, ACVR2A (Homo sapiens, UniProt P27037); assay: KINOMEscan at 1 μM, ACVR2A; format: binding; settings: 1000 nM, read-out: Percent Control
T23 construct: purchased Eurofins DiscoverX KINOMEscan
T23 sequence (P27037 20-513): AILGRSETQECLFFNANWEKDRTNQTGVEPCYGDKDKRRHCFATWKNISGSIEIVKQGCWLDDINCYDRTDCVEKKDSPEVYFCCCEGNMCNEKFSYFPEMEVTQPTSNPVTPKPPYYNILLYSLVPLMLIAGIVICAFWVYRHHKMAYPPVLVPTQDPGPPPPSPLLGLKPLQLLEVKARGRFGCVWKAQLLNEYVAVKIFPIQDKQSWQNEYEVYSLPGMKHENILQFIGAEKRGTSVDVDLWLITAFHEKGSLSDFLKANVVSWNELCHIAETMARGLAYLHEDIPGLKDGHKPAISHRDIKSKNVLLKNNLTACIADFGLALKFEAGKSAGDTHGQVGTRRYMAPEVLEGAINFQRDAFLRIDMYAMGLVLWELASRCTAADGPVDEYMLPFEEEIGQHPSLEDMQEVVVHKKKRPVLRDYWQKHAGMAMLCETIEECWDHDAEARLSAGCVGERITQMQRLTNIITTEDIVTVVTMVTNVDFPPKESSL
Text: as §2

[24] = target: T24, HIPK2 (Homo sapiens, UniProt Q9H2X6); assay: KINOMEscan at 1 μM, HIPK2; format: binding; settings: 1000 nM, read-out: Percent Control
T24 construct: purchased Eurofins DiscoverX KINOMEscan
Text: as §2

[25] = system: FLT3(ITD); assay: KINOMEscan at 1 μM, FLT3(ITD); format: binding, human; settings: 1000 nM
Text: as §2

[26] = target: T25, PIK3CA(E542K) (Homo sapiens, UniProt P42336, E542K); assay: KINOMEscan at 1 μM, PIK3CA(E542K); format: binding; settings: 1000 nM, read-out: Percent Control
T25 construct: purchased Eurofins DiscoverX KINOMEscan
Text: as §2

[27] = target: T26, PKN2 (Homo sapiens, UniProt Q16513); assay: KINOMEscan at 1 μM, PKN2; format: binding; settings: 1000 nM, read-out: Percent Control
T26 construct: purchased Eurofins DiscoverX KINOMEscan
Text: as §2

[28] = target: T2, INSR; assay: KINOMEscan at 1 μM, INSR; format: binding; settings: 1000 nM, read-out: Percent Control
Text: as §2

[29] = target: T27, CDK8 (Homo sapiens, UniProt P49336); assay: KINOMEscan at 1 μM, CDK8; format: binding; settings: 1000 nM, read-out: Percent Control
T27 construct: purchased Eurofins DiscoverX KINOMEscan
Text: as §2

[30] = target: T28, CSNK1G2 (Homo sapiens, UniProt P78368); assay: KINOMEscan at 1 μM, CSNK1G2; format: binding; settings: 1000 nM, read-out: Percent Control
T28 construct: purchased Eurofins DiscoverX KINOMEscan
Text: as §2

[31] = target: T29, EGFR(G719C) (Homo sapiens, UniProt P00533, G719C); assay: KINOMEscan binding assay at 1 μM, EGFR(G719C); settings: Compound Concentration 1000 nM; read-out: Percent Control
T29 construct: purchased Eurofins DiscoverX KINOMEscan
Text: as §2

[32] = target: T30, p38-gamma (Homo sapiens, UniProt P53778); assay: KINOMEscan binding assay at 1 μM, p38-gamma; settings: Compound Concentration 1000 nM; read-out: Percent Control
T30 construct: purchased Eurofins DiscoverX KINOMEscan
Text: as §2

[33] = target: T31, PLK4 (Homo sapiens, UniProt O00444); assay: KINOMEscan binding assay at 1 μM, PLK4; settings: Compound Concentration 1000 nM; read-out: Percent Control
T31 construct: purchased Eurofins DiscoverX KINOMEscan
T31 sequence (O00444 whole entry): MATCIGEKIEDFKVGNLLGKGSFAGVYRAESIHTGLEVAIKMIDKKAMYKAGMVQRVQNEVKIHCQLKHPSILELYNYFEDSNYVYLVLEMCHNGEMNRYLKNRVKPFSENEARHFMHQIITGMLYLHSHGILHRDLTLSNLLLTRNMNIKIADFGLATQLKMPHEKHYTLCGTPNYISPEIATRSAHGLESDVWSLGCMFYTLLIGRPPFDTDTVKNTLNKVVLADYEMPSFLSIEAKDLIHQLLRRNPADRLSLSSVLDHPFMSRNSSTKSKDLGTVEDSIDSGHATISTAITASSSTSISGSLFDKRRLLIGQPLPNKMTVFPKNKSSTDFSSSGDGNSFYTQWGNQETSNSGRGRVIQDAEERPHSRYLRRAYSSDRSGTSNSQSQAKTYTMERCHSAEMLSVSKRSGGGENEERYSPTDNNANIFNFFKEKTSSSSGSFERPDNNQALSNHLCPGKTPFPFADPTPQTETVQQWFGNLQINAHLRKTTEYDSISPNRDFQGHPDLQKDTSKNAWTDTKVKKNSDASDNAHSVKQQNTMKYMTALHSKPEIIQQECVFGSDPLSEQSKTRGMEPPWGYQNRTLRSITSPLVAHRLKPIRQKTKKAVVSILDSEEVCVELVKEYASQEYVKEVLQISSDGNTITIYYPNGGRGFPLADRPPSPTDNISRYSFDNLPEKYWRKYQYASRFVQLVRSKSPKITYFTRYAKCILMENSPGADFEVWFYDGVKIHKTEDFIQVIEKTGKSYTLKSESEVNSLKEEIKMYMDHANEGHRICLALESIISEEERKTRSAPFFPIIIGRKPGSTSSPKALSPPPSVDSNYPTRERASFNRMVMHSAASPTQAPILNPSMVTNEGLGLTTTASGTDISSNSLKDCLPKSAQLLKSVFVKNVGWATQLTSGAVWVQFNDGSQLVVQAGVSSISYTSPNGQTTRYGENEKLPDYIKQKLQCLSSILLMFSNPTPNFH
Text: as §2

## Cc1cccc(-c2cnc3occ(-c4ccc(C(=O)O)c(C5CCCC5)c4)c3c2)c1 [SGC-CAMKK2-1 (YL-36)]
[1]
  remaining binding at 1 µM: 69%
[2]
  remaining binding at 1 µM: 77%
[3]
  remaining binding at 1 µM: 86%
[4]
  remaining binding at 1 µM: 90%
[5]
  remaining binding at 1 µM: 96%
[6]
  remaining binding at 1 µM: 98%
[7]
  remaining binding at 1 µM: 100%
[8]
  remaining binding at 1 µM: 100%
[9]
  remaining binding at 1 µM: 100%
[10]
  remaining binding at 1 µM: 100%
[11]
  remaining binding at 1 µM: 100%
[12]
  remaining binding at 1 µM: 100%
[13]
  remaining binding at 1 µM: 100%
[14]
  remaining binding at 1 µM: 100%
[15]
  remaining binding at 1 µM: 100%
[16]
  remaining binding at 1 µM: 100%
[17]
  remaining binding at 1 µM: 100%
[18]
  remaining binding at 1 µM: 100%
[19]
  remaining binding at 1 µM: 100%

## O=C(O)c1ccc(-c2coc3ncc(-c4ccccc4)cc23)cc1Cl [SGC-CAMKK2-1N (UNC-YL-83)]
[20]
  remaining binding at 1 µM: 66%
[21]
  remaining binding at 1 µM: 66%
[22]
  remaining binding at 1 µM: 68%
[23]
  remaining binding at 1 µM: 72%
[24]
  remaining binding at 1 µM: 77%
[25]
  Percent Control: 81
[26]
  remaining binding at 1 µM: 81%
[27]
  remaining binding at 1 µM: 83%
[28]
  remaining binding at 1 µM: 93%
[29]
  remaining binding at 1 µM: 100%
[30]
  remaining binding at 1 µM: 100%
[31]
  remaining binding at 1 µM: 100%
[32]
  remaining binding at 1 µM: 100%
[33]
  remaining binding at 1 µM: 100%
